Measurements as given in article PMC8286840, “Identifying SARS-CoV-2 antiviral compounds by screening for small molecule inhibitors of Nsp3 papain-like protease” (Biochemical Journal, 2021).
Where a name gives a salt, the structure may show the parent alone. Read-outs that look alike come from different tables or passages of the source. Where a SMILES comes first, the peptide text is derived from it. Bridges are numbered along the chain shown (N, C = ends). [ ]: non-standard residue; d: D form. The star is where a group is joined. NMePhe(4-NMe2) = CN[C@@H](Cc1ccc(N(C)C)cc1)C(=O)O; Pip(4-oxo) = O=C1CCN[C@H](C(=O)O)C1; Picolinoyl(3-OH) = O=C(c1ncccc1O)*; Phg = N[C@H](C(=O)O)c1ccccc1; dAbu = CC[C@@H](N)C(=O)O

How the values were obtained:
[1] = target: T1, SARS-CoV-2 PLpro (nsp3 1564–1878) (Severe acute respiratory syndrome coronavirus 2, UniProt P0DTD1); assay: biochemical; parameters: FRET-quenched peptide (Pro3) cleavage by PLpro, 10 min pre-incubation, slope over 20 min, normalised to no-compound control; conditions: low concentration screen, read-out: % of control remaining
[2] = target: T1, SARS-CoV-2 PLpro (nsp3 1564–1878); assay: biochemical; parameters: FRET-quenched peptide (Pro3) cleavage by PLpro, 10 min pre-incubation, slope over 20 min, normalised to no-compound control; conditions: high concentration screen, read-out: % of control remaining
Procedure: The plates were organized with columns 3–22 containing the compounds; the remaining columns were used for reaction controls including substrate only and substrate with enzyme but no compound (Figure 3Aii). The PLpro enzyme was pre-incubated with the compounds for 10 min, and then the reaction was initiated by the addition of substrate. […] We incubated the inhibitors with PLpro before the enzymatic reaction so that the slow-binding inhibitors will not be missed out [21]. […] Fluorescence was read on a Spark multimode microplate reader (Tecan) with an excitation wavelength at 330 nm and emission wavelength at 420 nm. […] An amount of 5 µl of the enzyme was pre-incubated with compounds for 10 min before the addition of 15 µl substrate. Fluorescence was monitored at 2 min for 20 min with 3 min intervals giving a total of seven readings.

CC[C@H](C)C(=O)O[C@H]1C[C@H](O)C=C2C=C[C@H](C)[C@H](CC[C@@H](O)C[C@@H](O)CC(=O)O)[C@H]21 [Pravastatin sodium]
remaining activity at 1.25 µM ([1]; Well no.=4889): 96.4% | remaining activity at 3.75 µM ([2]; Well no.=4889): 96.9%

O=C(C1CCCCC1)N1CC(=O)N2CCc3ccccc3C2C1 (centres unmarked) [Praziquantel]
remaining activity at 1.25 µM ([1]; Well no.=908): 106% | remaining activity at 1.25 µM ([1]; Well no.=2155): 102% | remaining activity at 3.75 µM ([2]; Well no.=908): 104% | remaining activity at 3.75 µM ([2]; Well no.=2155): 100%

COc1cc2nc(N3CCN(C(=O)C4=CC5C=CC4CC5)CC3)nc(N)c2cc1OC (centres unmarked) [Prazobind]
remaining activity at 1.25 µM ([1]; Well no.=1311): 104% | remaining activity at 3.75 µM ([2]; Well no.=1311): 105%

COc1cc2nc(N3CCN(C(=O)c4ccco4)CC3)nc(N)c2cc1OC [Prazosin (hydrochloride)]
remaining activity at 1.25 µM ([1]; Well no.=6411): 96.4% | remaining activity at 3.75 µM ([2]; Well no.=6411): 85.9%

COc1cc2nc(N3CCN(C(=O)c4ccco4)CC3)nc(N)c2cc1OC [Prazosin.HCl]
remaining activity at 1.25 µM ([1]; Well no.=1689): 103% | remaining activity at 3.75 µM ([2]; Well no.=1689): 100%

CC(=O)OCC(=O)[C@@]1(O)CC[C@H]2[C@@H]3CCC4=CC(=O)C=C[C@]4(C)[C@H]3[C@@H](O)C[C@@]21C [Prednisolone acetate]
remaining activity at 1.25 µM ([1]; Well no.=5859): 102% | remaining activity at 3.75 µM ([2]; Well no.=5859): 95.6%

C[C@]12C=CC(=O)C=C1CC[C@@H]1[C@@H]2[C@@H](O)C[C@@]2(C)[C@H]1CC[C@]2(O)C(=O)CO [Prednisolone]
remaining activity at 1.25 µM ([1]; Well no.=2141): 99.3% | remaining activity at 1.25 µM ([1]; Well no.=6605): 102% | remaining activity at 3.75 µM ([2]; Well no.=6605): 102%

C[C@]12C=CC(=O)C=C1CC[C@@H]1[C@@H]2C(=O)C[C@@]2(C)[C@H]1CC[C@]2(O)C(=O)CO [Prednisone]
remaining activity at 1.25 µM ([1]; Well no.=2149): 97.7% | remaining activity at 1.25 µM ([1]; Well no.=7429): 109% | remaining activity at 3.75 µM ([2]; Well no.=2149): 103% | remaining activity at 3.75 µM ([2]; Well no.=7429): 101%

CC(=O)[C@H]1CC[C@H]2[C@@H]3CC=C4C[C@@H](OS(=O)(=O)O)CC[C@]4(C)[C@H]3CC[C@]12C [Pregnenolone sulfate sodium]
remaining activity at 1.25 µM ([1]; Well no.=1169): 101% | remaining activity at 3.75 µM ([2]; Well no.=1169): 102%

CC(=O)[C@H]1CC[C@H]2[C@@H]3CC=C4C[C@@H](O)CC[C@]4(C)[C@H]3CC[C@]12C [Pregnenolone]
remaining activity at 1.25 µM ([1]; Well no.=2151): 103% | remaining activity at 1.25 µM ([1]; Well no.=6277): 106% | remaining activity at 1.25 µM ([1]; Well no.=6919): 108% | remaining activity at 3.75 µM ([2]; Well no.=2151): 103% | remaining activity at 3.75 µM ([2]; Well no.=6277): 102% | remaining activity at 3.75 µM ([2]; Well no.=6919): 106%

COCCOc1ccc(N2CCN(CCn3ncc4c3nc(N)n3nc(-c5ccco5)nc43)CC2)cc1 [Preladenant]
remaining activity at 1.25 µM ([1]; Well no.=7141): 102% | remaining activity at 3.75 µM ([2]; Well no.=7141): 102%

CCCNC(C)C(=O)Nc1ccccc1C (centres unmarked) [Prilocaine hydrochloride]
remaining activity at 1.25 µM ([1]; Well no.=1355): 97.2% | remaining activity at 3.75 µM ([2]; Well no.=1355): 98.5%

CCCNC(C)C(=O)Nc1ccccc1C (centres unmarked) [Prilocaine]
remaining activity at 1.25 µM ([1]; Well no.=4616): 100% | remaining activity at 3.75 µM ([2]; Well no.=4616): 93.7%

COc1cc(NC(C)CCCN)c2ncccc2c1 (centres unmarked) [Primaquine]
remaining activity at 1.25 µM ([1]; Well no.=2153): 97.8% | remaining activity at 3.75 µM ([2]; Well no.=2153): 98.9%

CCC1(c2ccccc2)C(=O)NCNC1=O [Primidone]
remaining activity at 1.25 µM ([1]; Well no.=1443): 101% | remaining activity at 3.75 µM ([2]; Well no.=1443): 95.8%

CC[C@H]1NC(=O)[C@@H](NC(=O)c2ncccc2O)[C@@H](C)OC(=O)[C@H](c2ccccc2)NC(=O)[C@@H]2CC(=O)CCN2C(=O)[C@H](Cc2ccc(N(C)C)cc2)N(C)C(=O)[C@@H]2CCCN2C1=O [Pristinamycin IA] ({Picolinoyl(3-OH)}-T[dAbu]P[NMePhe(4-NMe2)][Pip(4-oxo)][Phg]; ester 1-C)
remaining activity at 1.25 µM ([1]; Well no.=7980): 96.9% | remaining activity at 3.75 µM ([2]; Well no.=7980): 96.6%

CCCN(CCC)S(=O)(=O)c1ccc(C(=O)O)cc1 [Probenecid (Benemid)]
remaining activity at 1.25 µM ([1]; Well no.=4972): 95.9% | remaining activity at 3.75 µM ([2]; Well no.=4972): 91.7%

CC(C)(Sc1cc(C(C)(C)C)c(O)c(C(C)(C)C)c1)Sc1cc(C(C)(C)C)c(O)c(C(C)(C)C)c1 [Probucol]
remaining activity at 1.25 µM ([1]; Well no.=4083): 98.5% | remaining activity at 3.75 µM ([2]; Well no.=4083): 105%

CCN(CC)CCNC(=O)c1ccc(N)cc1 [Procainamide hydrochloride]
remaining activity at 1.25 µM ([1]; Well no.=1307): 96.8% | remaining activity at 3.75 µM ([2]; Well no.=1307): 98.9%

CCN(CC)CCNC(=O)c1ccc(N)cc1 [Procainamide.HCl]
remaining activity at 1.25 µM ([1]; Well no.=1645): 108% | remaining activity at 3.75 µM ([2]; Well no.=1645): 107%

CCN(CC)CCOC(=O)c1ccc(N)cc1 [Procaine hydrochloride]
remaining activity at 1.25 µM ([1]; Well no.=1165): 103% | remaining activity at 3.75 µM ([2]; Well no.=1165): 105%

CNNCc1ccc(C(=O)NC(C)C)cc1 [Procarbazine]
remaining activity at 1.25 µM ([1]; Well no.=2145): 104% | remaining activity at 3.75 µM ([2]; Well no.=2145): 105%

CCC(NC(C)C)C(O)c1ccc(O)c2[nH]c(=O)ccc12 (centres unmarked) [Procaterol.HCl]
remaining activity at 1.25 µM ([1]; Well no.=1745): 99.6% | remaining activity at 3.75 µM ([2]; Well no.=1745): 101%

CN1CCN(CCCN2c3ccccc3Sc3ccc(Cl)cc32)CC1 [Prochlorperazine dimaleate]
remaining activity at 1.25 µM ([1]; Well no.=1497): 99.3% | remaining activity at 3.75 µM ([2]; Well no.=1497): 101%

O=C1N[C@H](C(=O)O)CS1 [Procysteine]
remaining activity at 1.25 µM ([1]; Well no.=3897): 104% | remaining activity at 3.75 µM ([2]; Well no.=3897): 103%

CC(=O)[C@H]1CC[C@H]2[C@@H]3CCC4=CC(=O)CC[C@]4(C)[C@H]3CC[C@]12C [Progesterone]
remaining activity at 1.25 µM ([1]; Well no.=852): 106% | remaining activity at 1.25 µM ([1]; Well no.=2143): 95.2% | remaining activity at 1.25 µM ([1]; Well no.=7071): 105% | remaining activity at 3.75 µM ([2]; Well no.=852): 107% | remaining activity at 3.75 µM ([2]; Well no.=2143): 101% | remaining activity at 3.75 µM ([2]; Well no.=7071): 104%

CCCN(CCC)C(=O)C(CCC(=O)O)NC(=O)c1ccccc1 (centres unmarked) [Proglumide]
remaining activity at 1.25 µM ([1]; Well no.=941): 104% | remaining activity at 3.75 µM ([2]; Well no.=941): 100%

CN(C)CCCN1c2ccccc2Sc2ccccc21 [Promazine hydrochloride]
remaining activity at 1.25 µM ([1]; Well no.=1155): 104% | remaining activity at 3.75 µM ([2]; Well no.=1155): 102%

CC(CN1c2ccccc2Sc2ccccc21)N(C)C (centres unmarked) [Promethazine hydrochloride]
remaining activity at 1.25 µM ([1]; Well no.=860): 100% | remaining activity at 3.75 µM ([2]; Well no.=860): 101%

CC(CN1c2ccccc2Sc2ccccc21)N(C)C (centres unmarked) [Promethazine.HCl]
remaining activity at 1.25 µM ([1]; Well no.=1640): 96.2% | remaining activity at 3.75 µM ([2]; Well no.=1640): 97.2%

CCCNCC(O)COc1ccccc1C(=O)CCc1ccccc1 (centres unmarked) [Propafenone hydrochloride]
remaining activity at 1.25 µM ([1]; Well no.=956): 101% | remaining activity at 3.75 µM ([2]; Well no.=956): 101%

CCCNCC(O)COc1ccccc1C(=O)CCc1ccccc1 (centres unmarked) [Propafenone]
remaining activity at 1.25 µM ([1]; Well no.=1641): 109% | remaining activity at 3.75 µM ([2]; Well no.=1641): 110%
